Data taken from patent US7576128B2 (priority 2004, dated 2009).
Substitutions are numbered along the chain they refer to. Read-outs that look alike come from different tables or passages of the source.

Experiments:
[1] = biological target: T1, hAR (human androgen receptor) (Homo sapiens, UniProt P10275); test: Competitive binding analysis on baculovirus/Sf9 generated hAR extracts with 3H-DHT tracer
T1 construct: made in house; host or cells: baculovirus/Sf9 insect cells
T1 sequence (P10275 1-920): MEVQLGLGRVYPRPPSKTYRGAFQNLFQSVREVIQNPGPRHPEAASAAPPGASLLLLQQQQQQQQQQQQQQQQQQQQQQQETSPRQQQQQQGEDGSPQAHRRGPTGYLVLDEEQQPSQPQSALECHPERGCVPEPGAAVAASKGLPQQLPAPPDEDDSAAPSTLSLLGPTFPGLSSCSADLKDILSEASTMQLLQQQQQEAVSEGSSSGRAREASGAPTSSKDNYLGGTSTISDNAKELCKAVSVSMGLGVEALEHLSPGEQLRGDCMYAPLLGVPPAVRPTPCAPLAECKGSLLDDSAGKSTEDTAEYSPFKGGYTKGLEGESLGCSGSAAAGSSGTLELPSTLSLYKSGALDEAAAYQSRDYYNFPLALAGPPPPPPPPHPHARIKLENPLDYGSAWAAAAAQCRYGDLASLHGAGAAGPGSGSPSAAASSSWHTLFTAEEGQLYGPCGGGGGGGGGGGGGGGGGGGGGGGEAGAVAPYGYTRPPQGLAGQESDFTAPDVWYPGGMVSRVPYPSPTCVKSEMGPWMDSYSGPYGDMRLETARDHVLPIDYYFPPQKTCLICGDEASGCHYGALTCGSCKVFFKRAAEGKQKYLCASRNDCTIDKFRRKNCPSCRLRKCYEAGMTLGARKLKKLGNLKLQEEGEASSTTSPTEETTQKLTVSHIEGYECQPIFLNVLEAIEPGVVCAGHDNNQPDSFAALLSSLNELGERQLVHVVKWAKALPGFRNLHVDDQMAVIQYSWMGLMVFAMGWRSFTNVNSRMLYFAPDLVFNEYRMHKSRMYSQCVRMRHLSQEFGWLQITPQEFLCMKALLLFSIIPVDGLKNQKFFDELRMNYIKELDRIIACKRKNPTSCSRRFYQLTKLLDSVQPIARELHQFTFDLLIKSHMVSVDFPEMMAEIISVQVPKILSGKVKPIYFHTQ
Experimental: The description below describes how the assay was carried out.
Competitive binding analysis was performed on baculovirus/Sf9 generated hAR extracts in the presence or absence of different concentrations of test agent and a fixed concentration of ^3H-dihydrotestosterone (^3H-DHT) as tracer. This binding assay method is a modification of a protocol previously described (Liao S., et. al. J. Steroid Biochem. 20:11-17 1984). Briefly, progressively decreasing concentrations of compounds are incubated in the presence of hAR extract (Chang et al. P.N.A.S. Vol. 89, pp. 5546-5950,1992), hydroxylapatite, and 1 nM ^3 H-DHT for one hour at 4° C. Subsequently, the binding reactions are washed three times to completely remove excess unbound ^3 H-DHT. hAR bound ^3H-DHT levels are determined in the presence of compounds (=i.e competitive binding) and compared to levels bound when no competitor is present (=i.e. maximum binding). Compound binding affinity to the hAR is expressed as the concentration of compound at which one half of the maximum binding is inhibited.

[2] = biological target: T2, androgen receptor (Homo sapiens, UniProt P10275); test: AR antagonist cell assay, MDA-MB453-MMTV clone 54-19 luciferase reporter; format: cell-based
T2 sequence (P10275 1-920 Q868H): T1 sequence (P10275 1-920) with Q868H
Experimental: The compounds ability to antagonize the effects of androgen on the androgen receptor were determined in a whole cell assay as described immediately below.
This cell line is a stable transfected cell line with MDA-MB453 cell background (a human breast tumor cell line expressing androgen receptor). A MMTV minimal promoter containing ARE was first cloned in front of a firefly luciferase reporter gene. Then the cascade was cloned into transfection vector pUV120puro. Electroporation method was used for transfecting MDA-MB-453 cell. Puromycin resistant stable cell line was selected.
• 1. Cells are maintained in culture medium, splitting cells when they reach 80-90% confluence • 2. To test compounds, 10,000 cells/well are plated to opaque 96 cell culture plate in 100 ul/well plating medium, culture for overnight at 37° C. in cell culture incubator • 3. Carefully remove plating medium, then add 80 ul/well of pre-warmed assay medium, add 10 ul/well testing compound (final concentration at) 1000 nM, 200 nM, 40 nM, 8 nM, 1.6 nM, and 0.32 nM), incubate at 37° C. for 30 minutes • 4. Add 10 ul/well freshly prepared DHT (final concentration at 100 pM) to each well, incubate at 37° C. for 17 hr (overnight) • 5.
The results are reported as the mean of multiple tests as described below (the numbers of tests are indicated in the footnote). N.D. denotes that the compound was not tested.

[3] = hAR extract, 1 nM 3H-DHT, one hour at 4° C., mean of multiple tests, read-out: AR Binding IC50
[4] = MDA-MB453-MMTV clone 54-19, 100 pM DHT, 17 hr; mean of multiple tests; read-out: AR Cell IC50
[5] = read-out: AR Cell IC50; MDA-MB453-MMTV clone 54-19, 100 pM DHT, 17 hr; mean of multiple tests

| SMILES | IC50 [1, 3] [nM] | IC50 [2, 4] [nM] | IC50 ([1]; read-out: AR Binding IC50) [nM] | also measured |
| --- | --- | --- | --- | --- |
| CC(C)CCCC(O)COc1ccc(C#N)c(C(F)(F)F)c1 (stereo not drawn) [Example 4, 4-(2-Hydroxy-6-methyl-heptyloxy)-2-tri-fluoromethyl-benzonitrile] | 442 | > 1000 | – | – |
| CCCCCCC(O)COc1ccc(C#N)c(C(F)(F)F)c1 (stereo not drawn) [Example 5, 4-(2-Hydroxy-octyloxy)-2-tri-fluoromethyl-benzonitrile] | – | 509 | 32 | – |
| C=CCCCCC(O)COc1ccc(C#N)c(C(F)(F)F)c1 (stereo not drawn) [Example 6, 4-(2-Hydroxy-oct-7-enyl-oxy)-2-tri-fluoromethyl-benzonitrile] | 415 | 662 | – | – |
| CC(O)CCOc1ccc(C#N)c(C(F)(F)F)c1 (stereo not drawn) [Example 7, 4-(3-Hydroxy-butoxy)-2-tri-fluoromethyl-benzonitrile] | 274 | > 1000 | – | – |
| C[C@H](O)CCOc1ccc(C#N)c(C(F)(F)F)c1 [Example 8, (3S)-4-(3-Hydroxy-butoxy)-2-tri-fluoromethyl-benzonitrile] | 213 | > 1000 | – | – |
| C=CCC(O)CCOc1ccc(C#N)c(C(F)(F)F)c1 (stereo not drawn) [Example 9, 4-(3-Hydroxy-hex-5-enyl-oxy)-2tri-fluoromethyl-benzonitrile] | 268 | – | – | – |
| CC(O)C(C)COc1ccc(C#N)c(C(F)(F)F)c1 (stereo not drawn) [Example 10, 4-(3-Hydroxy-2-meth-yl-butoxy)-2-tri-fluoromethyl-benzonitrile] | – | 274 | 70 | – |
| CC(C)(CO)COc1ccc(C#N)c(C(F)(F)F)c1 [Example 11, 4-(3-Hydroxy-2,2-di-methyl-propoxy)-2-tri-fluoromethyl-benzonitrile] | 706 | – | – | – |
| CC(C)(O)CCOc1ccc(C#N)c(C(F)(F)F)c1 [Example 12, 4-(3-Hydroxy-3-meth-yl-butoxy)-2-tri-fluoromethyl-benzonitrile] | – | 269 | 27 | – |
| CC(C)C(O)C(C)(C)COc1ccc(C#N)c(C(F)(F)F)c1 (stereo not drawn) [Example 13, 4-(3-Hydroxy-2,2,4-tri-methyl-pentyloxy)-2-tri-fluoromethyl-benzonitrile] | 442 | – | – | – |
| CCCC(O)C(CC)COc1ccc(C#N)c(C(F)(F)F)c1 (stereo not drawn) [Example 14, 4-(2-Ethyl-3-Hy-droxy-hexyl-oxy)-2-tri-fluoromethyl-benzonitrile] | 260 | 794 | – | – |
| C[C@H](O)C[C@H](C)Oc1ccc(C#N)c(C(F)(F)F)c1 [Example 16, (1S,3S)-4-(3-Hy-droxy-1-methyl-bu-toxy)-2-tri-fluoromethyl-benzonitrile] | – | > 1000 | – | IC50 [1]: 6 nM |
| C[C@H](C[C@@H](C)O)Oc1ccc(C#N)c(C(F)(F)F)c1 [Example 17, (1R,3R)-4-(3-Hy-droxy-1-methyl-butoxy)-2-tri-fluoromethyl-benzonitrile] | – | 807 | – | IC50 [1]: 107 nM |
| N#Cc1ccc(OCCCCO)cc1C(F)(F)F [Example 18, 4-(4-Hydroxy-butoxy)-2-tri-fluoromethyl-benzonitrile] | – | 398 | 74 | – |
| CC(O)CCCOc1ccc(C#N)c(C(F)(F)F)c1 (stereo not drawn) [Example 19] | – | – | 505 | IC50 [2, 5]: > 1000 nM |
| CCCC(O)CCCOc1ccc(C#N)c(C(F)(F)F)c1 (stereo not drawn) [Example 20, 4-(4-Hydroxy-heptyloxy)-2-tri-fluoromethyl-benzontrile] | 243 | 498 | – | – |
| CCCC(CCCO)Oc1ccc(C#N)c(C(F)(F)F)c1 (stereo not drawn) [Example 21, 4-(4-Hydroxy-1-pro-pyl-butoxy)-2-tri-fluoromethyl-benzonitrile] | – | – | 808 | – |
| CC(O)CCC(C)Oc1ccc(C#N)c(C(F)(F)F)c1 (stereo not drawn) [Example 22, 4-(4-Hydroxy-1-meth-yl-pentyloxy)-2-tri-fluoromethyl-benzonitrile] | 185 | – | – | IC50 [2, 5]: > 1000 nM |
| N#Cc1ccc(OCCCCCO)cc1C(F)(F)F [Example 24, 4-(5-Hydroxy-pentyloxy)-2-tri-fluoromethyl-benzonitrile] | 632 | > 1000 | – | – |
| CC(O)CCCCOc1ccc(C#N)c(C(F)(F)F)c1 (stereo not drawn) [Example 25, 4-(5-Hydroxy-hexyloxy)-2-tri-fluoromethyl-benzonitrile] | 504 | 838 | – | – |
| CC(CCO)CCOc1ccc(C#N)c(C(F)(F)F)c1 (stereo not drawn) [Example 26, 4-(5-Hydroxy-3-meth-yl-pentyloxy)-2-tri-fluoromethyl-benzonitrile] | – | – | 777 | – |
| CC(O)CCC(C)Oc1ccc(C#N)c(Cl)c1 (stereo not drawn) [Example 28, 2-Chloro-4-(4-hydroxy-1-methyl-pentyloxy)-benzonitrile] | – | 263 | 49 | – |
| N#Cc1ccc(OCCCO)cc1Cl [Example 29, 2-Chloro-4-(3-hydroxy-propoxy)-benzonitrile] | – | – | 394 | – |
| N#Cc1ccc(OCCCCO)cc1Cl [Example 30, 2-Chloro-4-(4-hydroxy-butoxy)-benzonitrile] | – | – | 99 | – |
| C=CC(CO)Oc1ccc(C#N)c(Cl)c1 (stereo not drawn) [Example 31, 2-Chloro-4-(1-hydroxymethyl-allyloxy)-benzonitrile] | 156 | – | – | – |
